The text below walks through data of patent US9801844B2, “Methods and compositions for the treatment of cancer” (priority 2012, dated 2017).

In assay [1] the test system is MDA-MB-453 Her2 overexpressing human breast cancer cells. The experiment in a line: MTT cell proliferation assay on MDA-MB-453 cells. The conditions noted are these: MDA-MB-453 cells, MTT assay; for IC50: read-out: IC50, concentration that caused 50% inhibition of cell proliferation. Format: cell-based. (Formazan colour is commonly taken as a measure of viable cells.)
Procedure: Cells were exposed to increasing concentrations of agents for 96 h and the number of viable cells determined by the MTT assay.

Assay [2] concerns MDA-MB-468 triple negative breast cancer cells. Briefly: MTT cell proliferation assay on MDA-MB-468 cells. In kind it is cell-based, human. Particulars: Homo sapiens, MDA-MB-468, MDA-MB-468 cells, MTT assay; read-out: IC50 growth inhibition. How it is done:
MDA-MB-453 (ER negative, Her2 overexpressing), MDA-MB-468 (triple negative) and MCF7 (ER positive, Her2 low) cells, HT29 (p53 positive human colon cancer cells) (ATCC, Manassas, Va.) were grown in Dulbecco's Modified Eagle's medium (DMEM) (Gibco BRL Life Technologies, Inc., Rockville, Md.) containing 10% (v/v) fetal bovine serum (FBS) (Gibco BRL) at 37° C., 5% C02. SUM 149 (Her2 overexpressing, ER low) (the gift of Dr. R. Parsons, Columbia University Medical Center, New York, N.Y.) were cultivated in Ham's F-12 medium with 10% FBS. MCF7 and MCF7/Her2-18 (MCF7 cells transfected with a full length Her2 cDNA coding region, 45-fold increase Her2) were the kind gift of Dr. Dennis Slamon (Los Angeles, Calif.). These cells were maintained in RPMI supplemented with 10% FBS plus glutamine (1%) and PSF (1%) (Gibco, Rockville Md.).
MTT assay: the MTT {3-(4,5-dimethyl-2-thiazol)-2,5-diphenyl-2H tetrazolilum bromide} (Dojindo; Tokyo, Japan) cell proliferation assay system (Roche Diagnostic, Mannheim, Germany) was used to determine the sensitivity of the various cell lines to agents. Cells were seeded at 1×10^4 cells/well in 96-well plates and allowed to attach for 24 h. The medium was replaced with fresh medium containing DMSO or compound. The cells were treated for 96 or 120 h, after which they were incubated with MTT reagents and the absorbance read at 650 and 575 nm. For cell growth assays, the data are expressed as mean+/−standard deviation. Control and treated cells were compared using the student's t-test (p<0.05).
To determine the Combination Index (CI), cells were treated with all combinations of 4 or 5 concentrations of each of the agents tested and a solvent control. The results of the MTT assay were analyzed for possible synergistic effects using the median effect principle. Variable ratios of drugs were employees and mutually exclusive equations were assumed.

Another assay has as its target Na+-K+-ATPase. The experiment in a line: Enzymatic assay of ATPase activity. In kind it is biochemical. The conditions noted are these: purified enzyme, in vitro; read-out: 50% inhibition, IC50 value, of Na+-K+-ATPase activity. How it is done:
The enzymatic assay of ATPase (adenosine 5′-triphosphatase, EC 3.6.1.3) followed the Sigma Prod. No. A-7510 protocol (Sigma-Aldrich, St. Louis, Mo., USA). Agents (0.05 ml) were pipetted with ATPase (0.05 ml, 0.5 units/ml, Sigma-Aldrich, St. Louis, Mo., USA), mixed and equilibrated for 5 min at 37° C. Taussky-Shorr reagent (10 ml of 10% ammonium molybdate in 10 N H2SO4) was pipetted to 70 ml H2O, 5 g of ferrous sulfate heptahydrate was added, and the volume was brought to 100 ml with H2O. Test supernatant (0.5 ml) and H2O (0.5 ml) were mixed and incubated at 25° C., and the absorbance read at A660 nm.
To determine whether the Na+-K+-ATPase is involved in the mechanism of action of CA and curcumin, the ability of these agents to inhibit the in vitro activity of the purified enzyme was assayed.

The test system of assay [3] is SKOV3 (Her2 overexpressing) human ovarian cancer cells. The experiment in a line: MTT cell proliferation assay on SKOV3 cells. Format: cell-based. Particulars: SKOV3, 96 h. How it is done:
SKOV3 (Her2 overexpressing) ovarian cancer cells (ATCC, Manassas, Va.), were grown in McCoy's media (Gibco BRL Life Technologies, Inc., Rockville, Md.) containing 10% (v/v) fetal bovine serum (FBS) (Gibco BRL) at 37° C., 5% C02, plus Penn-Strep (Sigma).
The MTT [3-(4,5-dimethyl-2-thiazol)-2,5-diphenyl-2H tetrazolilum bromide] (Dojindo; Tokyo, Japan) cell proliferation assay system (Roche Diagnostic, Mannheim, Germany) was used to determine the sensitivity of the cell lines to agents. Cells were seeded at 1×10^4 cells/well in 96-well plates and allowed to attach for 24 h. The medium was replaced with fresh medium containing DMSO or compound. The cells were treated for 96 h, after which the media was replaced with fresh media; the cells were incubated with MTT reagents and the absorbance read at 650 and 575 nm. The 650 reading was subtracted from the 575 reading to correct for background absorbance.

“And” between values parts separate entries of the source, which are not always exact repeats. Equal values may be shown once. Read-outs that look alike come from different tables or passages of the source.

Regarding `O=C(O[C@@H]1Cc2c(O)cc(O)cc2O[C@@H]1c1cc(O)c(O)c(O)c1)c1cc(O)c(O)c(O)c1` [EGCG, reference compound], in assay [1], the “IC50, concentration that caused 50% inhibition of cell proliferation” value is around 100 µg/mL and the IC50 was determined as 218 µM.

For the molecule `COc1cc(/C=C/C(=O)CC(=O)/C=C/c2ccc(O)c(OC)c2)ccc1O` [curcumin], the IC50 in assay [2] is 2.3 µg/mL and 6.2 µM; on Na+-K+-ATPase, around 2 µM; in assay [1] (Homo sapiens), 2 µg/mL and 5.4 µM.

For `O=C(/C=C/c1ccc(O)c(O)c1)O[C@H](Cc1ccc(O)c(O)c1)C(=O)O` [rosmarinic acid, reference compound], in assay [1] (Homo sapiens), the IC50 is ~56 µg/mL and ~150 µM.

On to `CC(=O)O[C@@H]1C[C@@]23C[C@@]24CC[C@H](O[C@@H]2OC[C@@H](O)[C@H](O)[C@H]2O)C(C)(C)[C@@H]4CC[C@H]3[C@]2(C)C[C@@H]3O[C@]4(C[C@@H](C)[C@@H]3[C@@]12C)O[C@H](O)[C@@]1(C)O[C@@H]41` [ACT, actein, reference compound], for which the “% cell proliferation” value in assay [3] (5 μg/ml) is 114.4%; in assay [3] (10 μg/ml), 116.1%; in assay [3] (15 μg/ml), 108.0%; in assay [3] (20 μg/ml), 98.1%.

Consider `Oc1ccc(C=Cc2cc(O)cc(O)c2)cc1` [resveratrol, reference compound], for which the IC50 in assay [1] (Homo sapiens) is 4 µg/mL and 17.5 µM.
